In US20230000813A1, “COMPOUND FOR THE TREATMENT OF BOVINE OR SWINE RESPIRATORY DISEASE” (Intervet Inc., priority 2016, published 2023):
≈ marks a conversion by molar mass, not a printed value. Where “and” joins values, the source holds several entries; their conditions need not be identical. Equal values may be shown once.

How the values were obtained:
[1] = system: 15 isolates of H. parasuis; assay: MIC50/MIC90, agar-dilution method (GC agar base); format: cell-based; conditions: Haemophilus parasuis
Description: The in vitro activity of 3 representative compounds of this invention against 15 isolates of H. parasuis was determined. All strains were isolated from the respiratory tract of swine in different European countries The MICs for all isolates were determined by using the agar-dilution method according to CLSI document VET01-A4 [1]with the following modification: GC agar base was used instead of Mueller-Hinton agar base for the preparation of the agar-dilution plates. Results were interpreted according to the CLSI document VET01-S3.

[2] = Plasma and tissue concentrations and pharmacokinetics in infected calves (Example 8); format: in vivo, Holstein black pied cattle calves
Description: Three animals each were treated one hour after infection by subcutaneous (SC) administration of Compound 329 in an aqueous 30% (w/v) Captisol® solution for injection at a dose of 10 mg/kg BW.
Food consumption was measured. Single individual blood samples were collected from the 12 animals at the following time points: D-1 (predose), 30 minutes, 2, 4, 6, 24 h and at D2 (ca. 45 h) after administration. After the day 2 blood sampling, the infected cattle were slaughtered. The lungs were weighted. Lung states and lung scores were observed morphologically.
At necropsy from animals treated with test items or the positive control, samples of epithelial lining fluid (ELF), lung tissue, and additionally tissue of liver and kidney were collected. From each lung two bacteriological swaps were taken from the left and right bronchus.
Epithelial lining fluid was collected by inserting sterile paper strips caudally behind the tracheal bifurcation directly onto the bronchial mucous membrane in the left and right bronchus and allowed to moisten with bronchial fluid. The paper strip was left in place (resting on the bronchial mucosa) for approximately 1 minute before being placed back into the plastic container.
From each lung two tissue samples were collected by clipping from at least two locations, one from morphologically unchanged tissue, one from the edge of pathomorphologically changed areas.
Plasma, ELF, lung tissue and additional tissue samples were analyzed for concentrations of Compound 329 and Enrofloxacin/Ciprofloxacin respectively using a HPLC-MS/MS method.
An analysis of the measured plasma concentrations of C.

[3] = Plasma and tissue concentrations in infected calves (Example 10); format: in vivo, cattle calves; conditions: individual animals and mean; for Concentration, Plasma 0 h: predose
[4] = system: naturally occurring bovine respiratory disease (BRD); assay: Treatment of naturally occurring bovine respiratory disease under U.S. feedlot conditions (Example 11); format: in vivo, weaned beef cattle calves
Source text: The effectiveness and safety of compound 329 for the treatment of naturally occurring bovine respiratory disease (BRD) under typical U.S. feedlot conditions when administered subcutaneously was investigated. The therapeutic efficacy of the two antibacterials was compared to a negative control group (sterile saline) and a positive control group (Nuflor® Injectable Solution).
Weaned beef cattle calves (crossbreds of Angus, Charolais and Limousin) were enrolled in the study and were allocated to groups of 20 animals per treatment group. Calves were enrolled in the study with body weights that ranged from 123 to 262 kg.
The bovine respiratory disease observed in this 10-day natural infection study was moderate to severe across the treatment groups and typical of that observed in commercial feed yards in the U.S.
Animals were dosed subcutaneously once on the day of enrollment (Day 0) with compound 329 or the control groups. Compound 329 was dosed at 10 mg/kg body weight. Nuflor® was dosed at 40 mg/kg body weight. Sterile saline was dosed at 2 mL/15 kg body weight.

[5] = SC single 10 mg/kg in 30% Captisol, individual animals and mean, 10 mg/kg
[6] = plasma, SC 10 mg/kg, mean, Phoenix WinNonlin
[7] = SC single 5 mg/kg (35% Cavitron), listed as C. 239, 5 mg/kg
[8] = SC single 10 mg/kg (C 231 in 10% Poloxamer 188; C 329 in 35% Cavitron), 10 mg/kg
[9] = D 0 to D 10, 20 calves per group, C. 329 10 mg/kg, Nuflor 40 mg/kg SC once
[10] = natural BRD, 20 calves per group, SC once on Day 0: C. 329 10 mg/kg, Nuflor 40 mg/kg
[11] = natural BRD, calves removed before D 10 included, C. 329 10 mg/kg, Nuflor 40 mg/kg SC once

CC(C)(N)C(NC(=O)c1ccc(C#Cc2ccc(CNC3CC3)cc2)cc1)C(=O)NO (stereo not drawn) [C. 329]
MIC50 [1]: 2 µg/mL (≈ 4.76 µM)
MIC90 [1]: 4 µg/mL (≈ 9.51 µM)
compound concentrations in the tissue samples ([2]; SC 10 mg/kg, compared with plasma, in words): above the plasma concentration
detection in plasma and section tissue samples ([2]; SC 10 mg/kg, in words): detected at high concentrations
Concentration, Plasma 0.5 h [2, 5]: 2340 ng/mL and 1520 ng/mL and 1280 ng/mL
Concentration, Plasma 2 h [2, 5]: 1930 ng/mL and 1410 ng/mL and 2330 ng/mL
Concentration, Plasma 4 h [2, 5]: 1200 ng/mL and 856 ng/mL and 1310 ng/mL
Concentration, Plasma 6 h [2, 5]: 692 ng/mL and 928 ng/mL and 718 ng/mL
Concentration, Plasma 24 h [2, 5]: 146 ng/mL and 187 ng/mL and 176 ng/mL
Concentration, Plasma 48 h [2, 5]: 60.5 ng/mL and 57.4 ng/mL and 85.2 ng/mL
Concentration, Tissue (48 h) Kidney [2, 5]: 22800 ng/mL and 25500 ng/mL and 17100 ng/mL
Concentration, Tissue (48 h) Liver [2, 5]: 7760 ng/mL and 7850 ng/mL and 5130 ng/mL
Concentration, Tissue (48 h) Lung [2, 5]: 8290 ng/mL and 9410 ng/mL and 7570 ng/mL
Concentration, Tissue (48 h) ELF ([2]; epithelial lining fluid, SC single 10 mg/kg in 30% Captisol, individual animals and mean, 10 mg/kg): 320 ng/mL and 356 ng/mL and 1370 ng/mL
AUClast [2, 6]: 19434 ng·h/mL
Cmax [2, 6]: 2063 ng/mL
HL_Lambda_z (Half life time) [2, 6]: 11.1 h
MRTlast (Mean retention time till last measured value) [2, 6]: 9.7 h
Tmax [2, 6]: 1.0 h
Vz_F_obs [2, 6]: 7.8 L/kg
Concentration, Plasma 0.5 h [3, 7]: 1140 ng/mL and 830 ng/mL and 945 ng/mL
Concentration, Plasma 2 h [3, 7]: 327 ng/mL and 326 ng/mL and 221 ng/mL
Concentration, Plasma 4 h [3, 7]: 146 ng/mL and 210 ng/mL and 130 ng/mL
Concentration, Plasma 6 h [3, 7]: 110 ng/mL and 156 ng/mL and 78.7 ng/mL
Concentration, Plasma 24 h [3, 7]: 32.2 ng/mL and 35.1 ng/mL and 22.8 ng/mL
Concentration, Plasma 48 h [3, 7]: 16.1 ng/mL and 18.2 ng/mL and 12.8 ng/mL
Concentration, Tissue (48 h) ELF [3, 7]: 91.8 ng/mL and 214 ng/mL and 324 ng/mL
Concentration, Tissue (48 h) Kidney [3, 7]: 8890 ng/mL and 3990 ng/mL and 4940 ng/mL
Concentration, Tissue (48 h) Liver [3, 7]: 2060 ng/mL and 1550 ng/mL and 1740 ng/mL
Concentration, Tissue (48 h) Lung [3, 7]: 1560 ng/mL and 1320 ng/mL and 1360 ng/mL
Concentration, Tissue (48 h) Muscle [3, 7]: 53.3 ng/mL and 45.7 ng/mL and 54.4 ng/mL
Concentration, Plasma 0.5 h [3, 8]: 1160 ng/mL and 1610 ng/mL and 1400 ng/mL
Concentration, Plasma 2 h [3, 8]: 476 ng/mL and 439 ng/mL and 550 ng/mL
Concentration, Plasma 4 h [3, 8]: 310 ng/mL and 267 ng/mL and 282 ng/mL
Concentration, Plasma 6 h [3, 8]: 210 ng/mL and 172 ng/mL and 174 ng/mL
Concentration, Plasma 24 h [3, 8]: 69.1 ng/mL and 42.9 ng/mL and 57.5 ng/mL
Concentration, Plasma 48 h [3, 8]: 49.3 ng/mL and 38.5 ng/mL and 32.4 ng/mL
Concentration, Tissue (48 h) ELF [3, 8]: 1090 ng/mL and 372 ng/mL and 250 ng/mL
Concentration, Tissue (48 h) Kidney [3, 8]: 6570 ng/mL and 20800 ng/mL and 4620 ng/mL
Concentration, Tissue (48 h) Liver [3, 8]: 3930 ng/mL and 3650 ng/mL and 2730 ng/mL
Concentration, Tissue (48 h) Lung [3, 8]: 2780 ng/mL and 3370 ng/mL and 2790 ng/mL
Concentration, Tissue (48 h) Muscle [3, 8]: 75.3 ng/mL and 68.5 ng/mL and 85.9 ng/mL
Concentration, Plasma 0 h ([3]; SC single 5 mg/kg (35% Cavitron)): BLQ
Concentration, Plasma 0 h ([3]; SC single 10 mg/kg (C 231 in 10% Poloxamer 188; C 329 in 35% Cavitron)): BLQ
Efficacy in a field like setting, naturally occurring BRD ([4]; 10 mg/kg SC once, compared to saline and Nuflor, conclusion in words): demonstrated
Mortalities during the study ([4]; 10-day natural BRD study, C. 329 10 mg/kg, Nuflor 40 mg/kg SC once): 5%
Removals from the study, Percentage [4, 9]: 5%
Removals from the study, Total [4, 9]: 1
Removals from the study, D 0 [4, 10]: 0
Removals from the study, D 1 [4, 10]: 0
Removals from the study, D 2 [4, 10]: 0
Removals from the study, D 3 [4, 10]: 0
Removals from the study, D 4 [4, 10]: 0
Removals from the study, D 5 [4, 10]: 0
Removals from the study, D 6 [4, 10]: 0
Removals from the study, D 7 [4, 10]: 0
Removals from the study, D 8 [4, 10]: 0
Removals from the study, D 9 [4, 10]: 1
Removals from the study, D 10 [4, 10]: 0
Average Body weight on D 0 ([4]; natural BRD, day of enrollment, C. 329 10 mg/kg, Nuflor 40 mg/kg SC once): 401.2 lb
Average Body weight on last day in study [4, 11]: 406.3 lb
Average daily body weight gain [4, 11]: 0.5 lb
daily body weight gains over the study period ([4]; natural BRD, in words): positive daily body weight gains
